Tests used:
[1] = test system: EBC-1 lung cancer cell line; test: EBC-1 cell proliferation, CellTiter-Glo assay; format: cell-based; conditions: Homo sapiens, 120 h; Ebc-1 cell viability, CTG assay, 5 days of treatment; read-out: CTG 5 day Ebc1 GI50
Description: (§1) The ability of the BCL-xL degrader low molecular weight compounds to inhibit cell proliferation and survival was assessed using the Promega CellTiter-Glo® proliferation assay on the EBC-1 lung cancer cell line (RCB1965, obtained from RIKEN.) The cells were cultured in media that is optimal for their growth at 5% CO2, 37° C. in a tissue culture incubator. Prior to seeding for the proliferation assay, the cells were split at least 2 days before the assay to ensure optimal growth density. On the day of seeding, cells were lifted off tissue culture flasks using 0.25% trypsin. Cell viability and cell density were determined using a cell counter (Vi-Cell XR Cell Viability Analyzer, Beckman Coulter). Cells with higher than 85% viability were seeded in white clear bottom 384-well plates (Greiner cat #781098) at a density of 1000 cells per well in 50 μL of standard growth media. Plates were incubated at 37° C. overnight in a tissue culture incubator.
The BCL-xL degrader low molecular weight compounds were prepared to desired concentrations. A series of 10 dilutions were made for each prepared compound. The prepared compounds were then added to the cells resulting in final concentrations of 0.508 nM-10 μM. An acoustic transfer device (Echo555, Beckman Coulter) was used to add the compounds to the cells. Each treatment was tested in triplicate assay plates. Plates were incubated at 37° C. overnight or for 5 days in a tissue culture incubator. The ability of the compounds to inhibit cell proliferation and survival was assessed using the Promega CellTiter-Glo® proliferation assay. Plates were incubated at room temperature for 20 minutes to stabilize luminescent signals prior to reading using a multimode plate reader (PHERAstar FSX Microplate Reader, BMG Labtech).
To evaluate the effect of the compound treatments, luminescent counts of untreated cells were taken the day after seeding (Day 0 readings), and after 5 days of treatment (Day 5 readings). The Day 5 readings of the untreated cells were compared to the Day 0 readings. Assays with at least one cell doubling during the incubation period were considered valid. To evaluate the effect of the drug treatments, luminescent counts from wells containing untreated cells (100% viability) were used to normalize treated samples. The concentrations of treatment required to inhibit 50% of cell growth or survival ([…]) were calculated using a four parameter logistic regression equation.

HiBiT-tagged BCL-xL = target: T1, HiBiT-tagged BCL-xL (Homo sapiens, UniProt Q07817); test: NCI-H1650 BCL-xL protein levels, Nano-Glo HiBiT Lytic Detection; format: cell-based; conditions: NCI-H1650 expressing HiBiT-tagged BCL-xL, overnight incubation, read-out: Bcl-xl HIBIT NCIH1650 DC50
T1 construct: expressed in transfected cells; host or cells: NCI-H1650 (ATCC No. CRL-5883), engineered HiBiT cell line
Description: as §1, with “degrade BCL-xL protein” for “inhibit cell proliferation and survival”, “Nano-Glo® HiBiT Lytic Detection System. The NCI-H1650 (ATCC No. CRL-5883) was engineered to express HiBiT-tagged BCL-xL. The NCI-H1650 HiBiT” for “CellTiter-Glo® proliferation assay on the EBC-1 lung cancer”, “was” for “(RCB1965, obtained from RIKEN.) The cells were”, “protein level” for “proliferation”, “5000” for “1000”, “30” for “50”
The BCL-xL degrader low molecular weight compounds were prepared to desired concentrations. A series of 10 dilutions were made for each prepared compound. The prepared compounds were then added to the cells resulting in final concentrations of 0.508 nM-10 μM. An acoustic transfer device (Echo555, Beckman Coulter) was used to add the compounds to the cells. Each treatment was tested in triplicate assay plates. Plates were incubated at 37° C. overnight in a tissue culture incubator.
BCL-xL degradation was assessed through the addition of 30 μL of Nano-Glo® HiBiT Lytic Reagent (Promega, cat #N3040), a reagent which lyses cells and contains a furimazine substrate and the large subunit (LgBiT) used in NanoLuc® Binary Technology. The LgBiT subunit having high affinity to a HiBiT-tagged protein will bind HiBiT, if present, resulting in complex formation of a luminescent NanoBiT® enzyme. This reaction will emit a luminescent signal proportional to the amount of HiBiT-tagged BCL-xL present in the cell lysate. Plates were incubated at room temperature for 20 minutes to stabilize luminescent signals prior to reading using a luminescence reader (PHERAstar FSX Microplate Reader, BMG Labtech).
To evaluate the effect of the drug treatments, luminescent counts from wells containing untreated cells (100% HiBiT-tagged BCL-xL) were used to normalize treated samples. The concentrations of treatment required to inhibit 50% were calculated using a four parameter logistic regression equation.

T1 sequence (Q07817 whole entry): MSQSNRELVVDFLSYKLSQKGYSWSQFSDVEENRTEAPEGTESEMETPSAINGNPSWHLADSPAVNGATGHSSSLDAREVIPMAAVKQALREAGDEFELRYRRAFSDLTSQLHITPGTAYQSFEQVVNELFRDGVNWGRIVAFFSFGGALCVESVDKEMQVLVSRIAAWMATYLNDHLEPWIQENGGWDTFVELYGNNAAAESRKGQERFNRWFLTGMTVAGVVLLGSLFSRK

GI50 [1] | DC50 (HiBiT-tagged BCL-xL) | Structure (SMILES)
35 nM | 2 nM | Cc1ncsc1-c1ccc([C@H](C)NC(=O)[C@@H]2C[C@@H](O)CN2C(=O)[C@@H](NC(=O)C[C@H]2CC[C@H](NC(=O)c3nc(N4CCCc5c4nnc(Nc4nc6ccccc6s4)c5C)ccc3-c3cnn(CC45CC6(C)CC(C)(C4)CC(OCCN4CCCC4)(C6)C5)c3C)CC2)C(C)(C)C)cc1 [Example 164, 6-(3-(benzo[d]thiazol-2-ylamino)-4-methyl-6,7-dihydropyrido[2,3-c]pyridazin-8(5H)-yl)-3-(1-(((1r,3R,5S,7s)-3,5-dimethyl-7-(2-(pyrrolidin-1-yl)ethoxy)adamantan-1-yl)methyl)-5-methyl-1H-pyrazol-4-yl)-N-((1S,4R)-4-(2-(((S)-1-((2S,4R)-4-hydroxy-2-(((S)-1-(4-(4-methylthiazol-5-yl)phenyl)ethyl)carbamoyl)pyrrolidin-1-yl)-3,3-dimethyl-1-oxobutan-2-yl)amino)-2-oxoethyl)cyclohexyl)picolinamide]
35 nM | > 1670 nM | Cc1ncsc1-c1ccc([C@H](C)NC(=O)[C@@H]2C[C@@H](O)CN2C(=O)[C@@H](NC(=O)[C@H]2C[C@H](NC(=O)c3nc(N4CCCc5c4nnc(Nc4nc6ccccc6s4)c5C)ccc3-c3cnn(CC45CC6(C)CC(C)(C4)CC(OCCN4CCCC4)(C6)C5)c3C)C2)C(C)(C)C)cc1 [Example 165, 6-(3-(benzo[d]thiazol-2-ylamino)-4-methyl-6,7-dihydropyrido[2,3-c]pyridazin-8(5H)-yl)-3-(1-(((1r,3R,5S,7s)-3,5-dimethyl-7-(2-(pyrrolidin-1-yl)ethoxy)adamantan-1-yl)methyl)-5-methyl-1H-pyrazol-4-yl)-N-((1S,3R)-3-(((S)-1-((2S,4R)-4-hydroxy-2-(((S)-1-(4-(4-methylthiazol-5-yl)phenyl)ethyl)carbamoyl)pyrrolidin-1-yl)-3,3-dimethyl-1-oxobutan-2-yl)carbamoyl)cyclobutyl)picolinamide]
68 nM | 1 nM | Cc1ncsc1-c1ccc([C@H](C)NC(=O)[C@@H]2C[C@@H](O)CN2C(=O)[C@@H](NC(=O)COC2CCN(C(=O)c3nc(N4CCCc5c4nnc(Nc4nc6ccccc6s4)c5C)ccc3-c3cnn(CC45CC6(C)CC(C)(C4)CC(OCCN4CCCC4)(C6)C5)c3C)CC2)C(C)(C)C)cc1 [Example 166, (2S,4R)-1-((S)-2-(2-((1-(6-(3-(benzo[d]thiazol-2-ylamino)-4-methyl-6,7-dihydropyrido[2,3-c]pyridazin-8(5H)-yl)-3-(1-(((1r,3R,5S,7s)-3,5-dimethyl-7-(2-(pyrrolidin-1-yl)ethoxy)adamantan-1-yl)methyl)-5-methyl-1H-pyrazol-4-yl)picolinoyl)piperidin-4-yl)oxy)acetamido)-3,3-dimethylbutanoyl)-4-hydroxy-N—((S)-1-(4-(4-methylthiazol-5-yl)phenyl)ethyl)pyrrolidine-2-carboxamide]
136 nM | 2 nM | Cc1ncsc1-c1ccc([C@H](C)NC(=O)[C@@H]2C[C@@H](O)CN2C(=O)[C@@H](NC(=O)CCOC2CCN(C(=O)c3nc(N4CCCc5c4nnc(Nc4nc6ccccc6s4)c5C)ccc3-c3cnn(CC45CC6(C)CC(C)(C4)CC(OCCN4CCCC4)(C6)C5)c3C)CC2)C(C)(C)C)cc1 [Example 167, (2S,4R)-1-((S)-2-(3-((1-(6-(3-(benzo[d]thiazol-2-ylamino)-4-methyl-6,7-dihydropyrido[2,3-c]pyridazin-8(5H)-yl)-3-(1-(((1r,3R,5S,7s)-3,5-dimethyl-7-(2-(pyrrolidin-1-yl)ethoxy)adamantan-1-yl)methyl)-5-methyl-1H-pyrazol-4-yl)picolinoyl)piperidin-4-yl)oxy)propanamido)-3,3-dimethylbutanoyl)-4-hydroxy-N—((S)-1-(4-(4-methylthiazol-5-yl)phenyl)ethyl)pyrrolidine-2-carboxamide]
73 nM | > 1670 nM | Cc1ncsc1-c1ccc([C@H](C)NC(=O)[C@@H]2C[C@@H](O)CN2C(=O)[C@@H](NC(=O)[C@H]2CCCN(C(=O)c3nc(N4CCCc5c4nnc(Nc4nc6ccccc6s4)c5C)ccc3-c3cnn(CC45CC6(C)CC(C)(C4)CC(OCCN4CCCC4)(C6)C5)c3C)C2)C(C)(C)C)cc1 [Example 168, (S)-1-(6-(3-(benzo[d]thiazol-2-ylamino)-4-methyl-6,7-dihydropyrido[2,3-c]pyridazin-8(5H)-yl)-3-(1-(((1r,3R,5S,7R)-3,5-dimethyl-7-(2-(pyrrolidin-1-yl)ethoxy)adamantan-1-yl)methyl)-5-methyl-1H-pyrazol-4-yl)picolinoyl)-N—((S)-1-((2S,4R)-4-hydroxy-2-(((S)-1-(4-(4-methylthiazol-5-yl)phenyl)ethyl)carbamoyl)pyrrolidin-1-yl)-3,3-dimethyl-1-oxobutan-2-yl)piperidine-3-carboxamide]
6 nM | > 1670 nM | Cc1ncsc1-c1ccc([C@H](C)NC(=O)[C@@H]2C[C@@H](O)CN2C(=O)[C@@H](NC(=O)[C@@H]2CCCN(C(=O)c3nc(N4CCCc5c4nnc(Nc4nc6ccccc6s4)c5C)ccc3-c3cnn(CC45CC6(C)CC(C)(C4)CC(OCCN4CCCC4)(C6)C5)c3C)C2)C(C)(C)C)cc1 [Example 169, (R)-1-(6-(3-(benzo[d]thiazol-2-ylamino)-4-methyl-6,7-dihydropyrido[2,3-c]pyridazin-8(5H)-yl)-3-(1-(((1r,3R,5S,7S)-3,5-dimethyl-7-(2-(pyrrolidin-1-yl)ethoxy)adamantan-1-yl)methyl)-5-methyl-1H-pyrazol-4-yl)picolinoyl)-N—((S)-1-((2S,4R)-4-hydroxy-2-(((S)-1-(4-(4-methylthiazol-5-yl)phenyl)ethyl)carbamoyl)pyrrolidin-1-yl)-3,3-dimethyl-1-oxobutan-2-yl)piperidine-3-carboxamide]
13 nM | 1 nM | Cc1ncsc1-c1ccc([C@H](C)NC(=O)[C@@H]2C[C@@H](O)CN2C(=O)[C@@H](NC(=O)CC2CC3(C2)CN(C(=O)c2nc(N4CCCc5c4nnc(Nc4nc6ccccc6s4)c5C)ccc2-c2cnn(CC45CC6(C)CC(C)(C4)CC(OCCN4CCCC4)(C6)C5)c2C)C3)C(C)(C)C)cc1 [Example 170, (2S,4R)-1-((S)-2-(2-(2-(6-(3-(benzo[d]thiazol-2-ylamino)-4-methyl-6,7-dihydropyrido[2,3-c]pyridazin-8(5H)-yl)-3-(1-(((1r,3R,5S,7s)-3,5-dimethyl-7-(2-(pyrrolidin-1-yl)ethoxy)adamantan-1-yl)methyl)-5-methyl-1H-pyrazol-4-yl)picolinoyl)-2-azaspiro [3.3]heptan-6-yl)acetamido)-3,3-dimethylbutanoyl)-4-hydroxy-N—((S)-1-(4-(4-methylthiazol-5-yl)phenyl)ethyl)pyrrolidine-2-carboxamide]
121 nM | > 1670 nM | Cc1ncsc1-c1ccc([C@H](C)NC(=O)[C@@H]2C[C@@H](O)CN2C(=O)[C@@H](NC(=O)CCC(=O)N2CCC[C@@H](NC(=O)c3nc(N4CCCc5c4nnc(Nc4nc6ccccc6s4)c5C)ccc3-c3cnn(CC45CC6(C)CC(C)(C4)CC(OCCN4CCCC4)(C6)C5)c3C)C2)C(C)(C)C)cc1 [Example 171]

From patent US20240376094A2, “SELECTIVE BCL-XL PROTAC COMPOUNDS AND METHODS OF USE” (Les Laboratoires Servier, priority 2021, published 2024)
